In patent US12522595B2, “Bicyclic ether O-glycoprotein-2-acetamido-2-deoxy-3-D-glucopyranosidase inhibitors” (BIOGEN MA INC., priority 2019, dated 2026):

biological target: T1, Recombinant full length human OGA enzyme (Homo sapiens, UniProt O60502); assay: OGA enzyme inhibition biochemical assay; conditions: 1 nM OGA, 100 μM 4-MUGlcNAc (Km), pH 6.4, 90 minutes at room temperature, 10-point dose-response from 20 μM
T1 construct: Recombinant full length human OGA enzyme was purchased from Origene; purchased Origene
T1 sequence (O60502 1-916): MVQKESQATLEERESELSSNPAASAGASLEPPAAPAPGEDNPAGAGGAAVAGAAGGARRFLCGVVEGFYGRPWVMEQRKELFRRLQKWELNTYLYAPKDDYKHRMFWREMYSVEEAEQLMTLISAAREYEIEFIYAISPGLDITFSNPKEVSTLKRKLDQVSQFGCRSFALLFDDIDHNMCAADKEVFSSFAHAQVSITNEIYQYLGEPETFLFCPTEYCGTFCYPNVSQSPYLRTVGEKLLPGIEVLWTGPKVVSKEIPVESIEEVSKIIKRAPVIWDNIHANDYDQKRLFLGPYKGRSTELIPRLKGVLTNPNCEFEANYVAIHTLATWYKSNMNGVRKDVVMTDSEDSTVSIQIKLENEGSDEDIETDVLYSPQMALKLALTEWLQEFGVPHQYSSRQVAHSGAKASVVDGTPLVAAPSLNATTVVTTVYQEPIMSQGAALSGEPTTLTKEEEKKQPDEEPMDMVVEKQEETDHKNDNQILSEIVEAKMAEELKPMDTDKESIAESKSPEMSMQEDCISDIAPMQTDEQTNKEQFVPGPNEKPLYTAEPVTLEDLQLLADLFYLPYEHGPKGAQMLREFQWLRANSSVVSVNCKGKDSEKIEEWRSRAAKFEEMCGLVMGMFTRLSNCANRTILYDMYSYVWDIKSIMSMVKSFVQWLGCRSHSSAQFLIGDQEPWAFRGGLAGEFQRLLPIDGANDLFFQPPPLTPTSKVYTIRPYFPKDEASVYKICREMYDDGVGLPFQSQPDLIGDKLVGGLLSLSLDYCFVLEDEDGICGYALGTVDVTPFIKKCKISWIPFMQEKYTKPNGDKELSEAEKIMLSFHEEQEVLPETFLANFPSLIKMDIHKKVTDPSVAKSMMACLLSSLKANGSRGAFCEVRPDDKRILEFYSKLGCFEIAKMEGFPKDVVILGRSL
Method: N-(5-(((2S,4R)-4-([1,2,4]triazolo[4,3-a]pyrazin-3-yloxy)-2-methylpyrrolidin-1-yl)methyl)-4-fluorothiazol-2-yl)acetamide: The title compound was prepared in an analogous manner as Example 172 from 3-bromo-[1,2,4]triazolo[4,3-a]pyrazine. LCMS (ESI): [M+H] 392. ^1H NMR (600 MHz, CHLOROFORM-d) δ 10.75 (br s, 1H), 9.04 (s, 1H), 9.03 (s, 1H), 7.24 (s, 1H), 4.99-5.06 (m, 1H), 4.01 (d, J=14.49 Hz, 1H), 3.64 (d, J=14.67 Hz, 1H), 3.40 (d, J=11.55 Hz, 1H), 2.75 (dd, J=5.78, 11.46 Hz, 1H), 2.61-2.72 (m, 2H), 2.32 (s, 4H), 1.84-1.92 (m, 1H), 1.30 (d, J=5.87 Hz, 4H). ^19F NMR (565 MHz, CHLOROFORM-d) 6-115.92 (br s, 1F). OGA Enzyme Inhibition Biochemical Assay
Recombinant full length human OGA enzyme was purchased from Origene. 4-MUGlCNAc substrate was purchased from Sigma. All other reagents were purchased from Sigma or Fisher. Assay buffer consists of the McIlvaine buffer system, pH 6.4 (0.2M Na2HPO4 mixed with 0.1M citric acid) and 0.01% BSA. Reactions consist of 1 nM OGA, 100 μM 4-MUGlcNAc (Km), and compound in a final volume of 10 μl. Reactions were incubated for 90 minutes at room temperature and quenched with 40 μl of 3M glycine, pH 10 and read on a Perkin Elmer Envision plate reader (Ex: 355 nm/Em: 460 nm). Compounds were tested with a 10-point dose-response starting from 20 μM with a 4-fold dilution. Data, as presented in Table 1 below, was fit using GraphPad Prism using a 4-parameter fit with variable slope.

Question: For `CC(=O)Nc1nc(F)c(CN2C[C@H](Oc3nccc4c3cnn4C)C[C@@H]2C)s1` [Example 138, N-(4-fluoro-5-(((2S,4R)-2-methyl-4-((1-methyl-1H-pyrazolo[4,3-c]pyridin-4-yl)oxy)pyrrolidin-1-yl)methyl)thiazol-2-yl)acetamide], which IC50 is on record?
Answer: The IC50 was under 1 nM.

Question: For `CC(=O)Nc1nc(F)c(CN2C[C@H](Oc3nnc4cnccn34)C[C@@H]2C)s1` [Example 174, N-(5-(((2S,4R)-4-([1,2,4]triazolo[4,3-a]pyrazin-3-yloxy)-2-methylpyrrolidin-1-yl)methyl)-4-fluorothiazol-2-yl)acetamide], which IC50 is on record?
Answer: Its IC50 is 2.6 nM.

Question: `CC(=O)Nc1nc(F)c(CN2C[C@H](Oc3cnc4nccn4c3)C[C@@H]2C)s1` [Example 164, N-(4-fluoro-5-(((2S,4R)-4-(imidazo[1,2-a]pyrimidin-6-yloxy)-2-methylpyrrolidin-1-yl)methyl)thiazol-2-yl)acetamide] was tested. Which IC50 did it give?
Answer: Its IC50 is under 1 nM.

Question: With `CC(=O)Nc1ncc(CN2C[C@H](Oc3ccn4nccc4n3)C[C@@H]2C)s1` [Example 61, N-(5-(((2S,4R)-2-methyl-4-(pyrazolo[1,5-a]pyrimidin-5-yloxy)pyrrolidin-1-yl)methyl)thiazol-2-yl)acetamide] as the compound, how does the IC50 read?
Answer: Its IC50 is under 1 nM.

Question: `CC(=O)Nc1nc(F)c(CN2C[C@H](Oc3nccn4cnnc34)C[C@@H]2C)s1` [Example 101, N-(5-(((2S,4R)-4-([1,2,4]triazolo[4,3-a]pyrazin-8-yloxy)-2-methylpyrrolidin-1-yl)methyl)-4-fluorothiazol-2-yl)acetamide] was tested. Which IC50 did it give?
Answer: Its IC50 is under 1 nM.

Question: For `CC(=O)Nc1nc(F)c(CN2C[C@H](Oc3ccc4c(cnn4C(F)F)n3)C[C@@H]2C)s1` [Example 153, N-(5-(((2S,4R)-4-((1-(difluoromethyl)-1H-pyrazolo[4,3-b]pyridin-5-yl)oxy)-2-methylpyrrolidin-1-yl)methyl)-4-fluorothiazol-2-yl)acetamide], which IC50 is on record?
Answer: Its IC50 is under 1 nM.

Question: How did the IC50 turn out when `CC(=O)Nc1nc(F)c(CN2C[C@H](Oc3nccn4cc(C)nc34)C[C@@H]2C)s1` [Example 103, N-(4-fluoro-5-(((2S,4R)-2-methyl-4-((2-methylimidazo[1,2-a]pyrazin-8-yl)oxy)pyrrolidin-1-yl)methyl)thiazol-2-yl)acetamide] was run?
Answer: Its IC50 is under 1 nM.

Question: For `CC(=O)Nc1nc(F)c(CN2C[C@H](Oc3nncc4cc(F)ccc34)C[C@@H]2C)s1` [Example 133, N-(4-fluoro-5-(((2S,4R)-4-((6-fluorophthalazin-1-yl)oxy)-2-methylpyrrolidin-1-yl)methyl)thiazol-2-yl)acetamide], which IC50 is on record?
Answer: Its IC50 is under 1 nM.

Question: With `CC(=O)Nc1nc(F)c(CN2C[C@H](Oc3ccnc4ccoc34)C[C@@H]2C)s1` [Example 47, N-(4-fluoro-5-(((2S,4R)-4-(furo[3,2-b]pyridin-7-yloxy)-2-methylpyrrolidin-1-yl)methyl)thiazol-2-yl)acetamide] as the compound, how does the IC50 read?
Answer: Its IC50 is under 1 nM.

Question: `CC(=O)Nc1ncc(CN2C[C@H](Oc3c(Cl)ccn4ccnc34)C[C@@H]2C)s1` [Example 38, N-(5-(((2S,4R)-4-((7-chloroimidazo[1,2-a]pyridin-8-yl)oxy)-2-methylpyrrolidin-1-yl)methyl)thiazol-2-yl)acetamide] was tested. Which IC50 did it give?
Answer: Its IC50 is under 1 nM.

Question: How did the IC50 turn out when `CC(=O)Nc1ncc(CN2C[C@H](Oc3ccc4cn(C)nc4c3)C[C@@H]2C)s1` [Example 52, N-(5-(((2S,4R)-2-methyl-4-((2-methyl-2H-indazol-6-yl)oxy)pyrrolidin-1-yl)methyl)thiazol-2-yl)acetamide] was run?
Answer: Its IC50 is under 1 nM.

Question: `CC(=O)Nc1ncc(CN2C[C@H](Oc3nccc4oc(C)cc34)C[C@@H]2C)s1` [Example 16, N-(5-(((2S,4R)-2-methyl-4-((2-methylfuro[3,2-c]pyridin-4-yl)oxy)pyrrolidin-1-yl)methyl)thiazol-2-yl)acetamide] was tested. Which IC50 did it give?
Answer: Its IC50 is under 1 nM.

Question: How did the IC50 turn out when `CC(=O)Nc1nc(F)c(CN2C[C@H](Oc3cc4cnn(C)c4cn3)C[C@@H]2C)s1` [Example 90, N-(4-fluoro-5-(((2S,4R)-2-methyl-4-((1-methyl-1H-pyrazolo[3,4-c]pyridin-5-yl)oxy)pyrrolidin-1-yl)methyl)thiazol-2-yl)acetamide] was run?
Answer: Its IC50 is under 1 nM.

Question: For `CC(=O)Nc1nc(F)c(CN2C[C@H](Oc3ncnc4cnccc34)C[C@@H]2C)s1` [Example 118, N-(4-fluoro-5-(((2S,4R)-2-methyl-4-(pyrido[3,4-d]pyrimidin-4-yloxy)pyrrolidin-1-yl)methyl)thiazol-2-yl)acetamide], which IC50 is on record?
Answer: The IC50 was under 1 nM.

Question: Which IC50 does the source give for `CC(=O)Nc1nc(F)c(CN2C[C@H](Oc3ccc4ccccc4n3)C[C@@H]2C)s1` [Example 78, N-(4-fluoro-5-(((2S,4R)-2-methyl-4-(quinolin-2-yloxy)pyrrolidin-1-yl)methyl)thiazol-2-yl)acetamide] here?
Answer: The IC50 was under 1 nM.

Question: For `CC(=O)Nc1ncc(CN2C[C@H](Oc3ncnc4sc(C(F)F)nc34)C[C@@H]2C)s1` [Example 36], which IC50 is on record?
Answer: The IC50 was 780 nM.

Question: Which IC50 does the source give for `COc1ccc2ccc(O[C@@H]3C[C@H](C)N(Cc4cnc(NC(C)=O)s4)C3)nc2n1` [Example 166, N-(5-(((2S,4R)-4-((7-methoxy-1,8-naphthyridin-2-yl)oxy)-2-methylpyrrolidin-1-yl)methyl)thiazol-2-yl)acetamide] here?
Answer: Its IC50 is under 1 nM.

Question: How did the IC50 turn out when `CC(=O)Nc1ncc(CN2C[C@H](Oc3cc4nccn4cn3)C[C@@H]2C)s1` [Example 39, N-(5-(((2S,4R)-4-(imidazo[1,2-c]pyrimidin-7-yloxy)-2-methylpyrrolidin-1-yl)methyl)thiazol-2-yl)acetamide] was run?
Answer: Its IC50 is under 1 nM.

Question: For `CC(=O)Nc1nc(F)c(CN2C[C@H](Oc3ncnc4ccoc34)C[C@@H]2C)s1` [Example 94, N-(4-fluoro-5-(((2S,4R)-4-(furo[3,2-d]pyrimidin-4-yloxy)-2-methylpyrrolidin-1-yl)methyl)thiazol-2-yl)acetamide], which IC50 is on record?
Answer: Its IC50 is under 1 nM.

Question: `CC(=O)Nc1nc(F)c(CN2C[C@H](Oc3nccc4ncccc34)C[C@@H]2C)s1` [Example 114, N-(5-(((2S,4R)-4-((1,6-naphthyridin-5-yl)oxy)-2-methylpyrrolidin-1-yl)methyl)-4-fluorothiazol-2-yl)acetamide] was tested. Which IC50 did it give?
Answer: Its IC50 is under 1 nM.

Question: `CC(=O)Nc1nc(F)c(CN2C[C@H](Oc3ncnc4occc34)C[C@@H]2C)s1` [Example 74, N-(4-fluoro-5-(((2S,4R)-4-(furo[2,3-d]pyrimidin-4-yloxy)-2-methylpyrrolidin-1-yl)methyl)thiazol-2-yl)acetamide] was tested. Which IC50 did it give?
Answer: Its IC50 is under 1 nM.

Question: `CC(=O)Nc1nc(F)c(CN2C[C@H](Oc3nccc4nccnc34)C[C@@H]2C)s1` [Example 115, N-(4-fluoro-5-(((2S,4R)-2-methyl-4-(pyrido[3,4-b]pyrazin-5-yloxy)pyrrolidin-1-yl)methyl)thiazol-2-yl)acetamide] was tested. Which IC50 did it give?
Answer: Its IC50 is 3.8 nM.

Question: Which IC50 does the source give for `CC(=O)Nc1nc(F)c(CN2C[C@H](Oc3ncc4cnn(C)c4n3)C[C@@H]2C)s1` [Example 142, N-(4-fluoro-5-(((2S,4R)-2-methyl-4-((1-methyl-1H-pyrazolo[3,4-d]pyrimidin-6-yl)oxy)pyrrolidin-1-yl)methyl)thiazol-2-yl)acetamide] here?
Answer: Its IC50 is under 1 nM.

Question: `CC(=O)Nc1ncc(CN2C[C@H](Oc3cc(C)nc4ccccc34)C[C@@H]2C)s1` [Example 13, N-(5-(((2S,4R)-2-methyl-4-((2-methylquinolin-4-yl)oxy)pyrrolidin-1-yl)methyl)thiazol-2-yl)acetamide] was tested. Which IC50 did it give?
Answer: The IC50 was under 1 nM.

Question: `CC(=O)Nc1nc(F)c(CN2C[C@H](Oc3ccn4ncnc4c3)C[C@@H]2C)s1` [Example 107, N-(5-(((2S,4R)-4-([1,2,4]triazolo[1,5-a]pyridin-7-yloxy)-2-methylpyrrolidin-1-yl)methyl)-4-fluorothiazol-2-yl)acetamide] was tested. Which IC50 did it give?
Answer: Its IC50 is under 1 nM.
